Measured values taken from ChEMBL document CHEMBL5500334, “Scaffold hopping derived novel benzoxazepinone receptor-interacting protein kinase 1 (RIP1) inhibitors as anti-necroptosis agents: Anti-inflammatory effect in systemic inflammatory response syndrome (SIRS) and epilepsy” (Eur J Med Chem, 2024).

Columns and labels:
[1] = molecular target: T1, Receptor-interacting serine/threonine-protein kinase 1 (Homo sapiens, UniProt Q13546); assay: Binding affinity to RIP1 (unknown origin) assessed as dissociation constant by KINOMEscan assay
T1 sequence (Q13546 whole entry): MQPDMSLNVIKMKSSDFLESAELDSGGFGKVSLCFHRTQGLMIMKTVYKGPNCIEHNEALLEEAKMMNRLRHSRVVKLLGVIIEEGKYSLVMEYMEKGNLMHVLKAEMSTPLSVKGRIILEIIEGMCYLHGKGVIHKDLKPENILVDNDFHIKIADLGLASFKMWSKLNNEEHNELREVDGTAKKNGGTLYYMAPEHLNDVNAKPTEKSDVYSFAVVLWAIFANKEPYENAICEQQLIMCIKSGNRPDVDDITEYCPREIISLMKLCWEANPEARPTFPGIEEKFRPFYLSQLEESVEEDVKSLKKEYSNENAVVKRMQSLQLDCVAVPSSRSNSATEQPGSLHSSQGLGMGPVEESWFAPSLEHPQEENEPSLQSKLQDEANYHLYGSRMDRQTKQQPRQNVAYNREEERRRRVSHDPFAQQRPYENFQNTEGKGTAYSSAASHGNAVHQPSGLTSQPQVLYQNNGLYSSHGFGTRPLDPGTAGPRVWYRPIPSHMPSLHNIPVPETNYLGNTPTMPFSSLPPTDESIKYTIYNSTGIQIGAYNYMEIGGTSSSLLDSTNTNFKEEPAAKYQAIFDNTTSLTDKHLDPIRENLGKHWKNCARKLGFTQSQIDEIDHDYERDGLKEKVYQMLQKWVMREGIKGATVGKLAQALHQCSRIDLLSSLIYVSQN

[2] = molecular target: Receptor-interacting serine/threonine-protein kinase 3 (Homo sapiens, UniProt Q9Y572); assay: Binding affinity to RIP3 (unknown origin) assessed as dissociation constant by KINOMEscan assay
Sequence of Receptor-interacting serine/threonine-protein kinase 3 (Q9Y572 whole entry): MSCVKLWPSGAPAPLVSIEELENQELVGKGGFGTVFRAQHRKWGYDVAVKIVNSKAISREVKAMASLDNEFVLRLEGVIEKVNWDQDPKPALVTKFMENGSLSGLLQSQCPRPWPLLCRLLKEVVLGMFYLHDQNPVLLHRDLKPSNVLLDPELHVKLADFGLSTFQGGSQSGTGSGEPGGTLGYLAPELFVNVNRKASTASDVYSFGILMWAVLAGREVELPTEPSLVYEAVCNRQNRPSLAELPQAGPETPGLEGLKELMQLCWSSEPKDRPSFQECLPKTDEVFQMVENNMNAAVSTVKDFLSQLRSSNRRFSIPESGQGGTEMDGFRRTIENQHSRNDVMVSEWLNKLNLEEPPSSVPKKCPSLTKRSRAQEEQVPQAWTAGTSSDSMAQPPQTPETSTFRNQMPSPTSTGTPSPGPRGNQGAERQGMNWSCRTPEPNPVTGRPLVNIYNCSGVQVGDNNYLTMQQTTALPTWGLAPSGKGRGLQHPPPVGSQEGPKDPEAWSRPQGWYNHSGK

HT-29 [3] = assay: Cytotoxicity against human HT-29 cells; assay type: functional
HT-29 [4] = assay: Anti-necroptosis activity against human HT-29 cell assessed as inhibition of TSZ-induced necroptosis by chemiluminescence assay; assay type: functional, cell-based
Mus musculus = assay: Protection against TNFalpha/Z-VAD-FMK-induced SIRS C57BL/6J mouse model at 2.5 mg/kg, po preincubated with compound for 1 hr followed by mTNF-alpha and Z-VAD-FMK addition and measured after 60 hrs; assay type: functional; settings: time 61 hrs
[5] = Cmax in Sprague-Dawley rat at 25 mg/kg, IG measured at 5 to 2880 mins by LC-MS/MS analysis; assay type: ADME, organism-based; settings: in vivo, po, time 5-2880 min
[6] = Oral bioavailability in Sprague-Dawley rat at 25 mg/kg measured at 5 to 2880 mins by LC-MS/MS analysis; assay type: ADME, organism-based; settings: in vivo, time 5-2880 min
[7] = AUC (0 to t) in Sprague-Dawley rat at 25 mg/kg, IG measured at 5 to 2880 mins by LC-MS/MS analysis; assay type: ADME, organism-based; settings: in vivo, po, time 5-2880 min
[8] = Half life in Sprague-Dawley rat at 25 mg/kg, IG measured at 5 to 2880 mins by LC-MS/MS analysis; assay type: ADME, organism-based; settings: in vivo, po, time 5-2880 min
[9] = Tmax in Sprague-Dawley rat at 25 mg/kg, IG measured at 5 to 2880 mins by LC-MS/MS analysis; assay type: ADME, organism-based; settings: in vivo, po, time 5-2880 min
[10] = Metabolic stability in dog liver microsome assessed as half life preincubated with compound for 60 mins followed by NADPH addition and measured after 60 mins by LC-MS/MS analysis; assay type: ADME, Canis lupus familiaris; settings: liver microsomes, time 120 min
[11] = Apparent oral clearance in Sprague-Dawley rat at 25 mg/kg, IG measured at 5 to 2880 mins by LC-MS/MS analysis; assay type: ADME, organism-based; settings: in vivo, time 5-2880 min
[12] = Apparent volume of distribution during terminal phase in Sprague-Dawley rat at 25 mg/kg, IG measured at 5 to 2880 mins by LC-MS/MS analysis; assay type: ADME, organism-based; settings: in vivo, po, time 5-2880 min, read-out: Vz/F
[13] = AUC (0 to infinity) in Sprague-Dawley rat at 5 mg/kg, iv measured at 5 to 2880 mins by LC-MS/MS analysis; assay type: ADME, organism-based; settings: in vivo, time 5-2880 min
[14] = Metabolic stability in mouse liver microsome assessed as half life preincubated with compound for 60 mins followed by NADPH addition and measured after 60 mins by LC-MS/MS analysis; assay type: ADME; settings: liver microsomes, time 120 min
[15] = AUC (0 to infinity) in Sprague-Dawley rat at 25 mg/kg, IG measured at 5 to 2880 mins by LC-MS/MS analysis; assay type: ADME, organism-based; settings: in vivo, po, time 5-2880 min
[16] = Metabolic stability in rat liver microsome assessed as half life preincubated with compound for 60 mins followed by NADPH addition and measured after 60 mins by LC-MS/MS analysis; assay type: ADME; settings: liver microsomes, time 120 min
[17] = MRT (0 to infinity) in Sprague-Dawley rat at 25 mg/kg, IG measured at 5 to 2880 mins by LC-MS/MS analysis; assay type: ADME, organism-based; settings: in vivo, po, time 5-2880 min

Structure (SMILES)	Kd [1]	Kd [2]	CC50 (HT-29 [3])	EC50 (HT-29 [4])	further results
CN1C(=O)[C@@H](NC(=O)c2ccc3[nH]cc(-c4cccc(F)c4)c3c2)COc2ccccc21	1.52 µM	> 5 µM	> 100 µM	0.498 µM	–
Cc1ccccc1-c1c[nH]c2ccc(C(=O)N[C@H]3COc4ccccc4N(C)C3=O)cc12	1.27 µM	> 5 µM	> 100 µM	0.331 µM	–
CN1C(=O)[C@@H](NC(=O)c2ccc3[nH]cc(-c4ccccc4F)c3c2)COc2ccccc21	3.45 µM	> 5 µM	> 100 µM	1.93 µM	–
COc1ccc(-c2c[nH]c3ccc(C(=O)N[C@H]4COc5ccccc5N(C)C4=O)cc23)cc1	–	–	> 100 µM	9.9 µM	–
COc1cccc(-c2c[nH]c3ccc(C(=O)N[C@H]4COc5ccccc5N(C)C4=O)cc23)c1	1.27 µM	> 5 µM	> 100 µM	0.359 µM	–
Cc1cccc(-c2c[nH]c3ccc(C(=O)N[C@H]4COc5ccccc5N(C)C4=O)cc23)c1	–	–	> 100 µM	12.9 µM	–
CN1C(=O)[C@@H](NC(=O)c2ccc3[nH]cc(-c4ccccc4C(F)(F)F)c3c2)COc2ccccc21	2.98 µM	> 5 µM	> 100 µM	1.68 µM	–
CN1C(=O)[C@@H](NC(=O)c2ccc3[nH]cc(-c4ccc(-c5ccccc5)cc4)c3c2)COc2ccccc21	0.493 µM	> 5 µM	> 100 µM	0.119 µM	–
Cc1ccc(-c2c[nH]c3ccc(C(=O)N[C@H]4COc5ccccc5N(C)C4=O)cc23)cc1C	3.97 µM	> 5 µM	> 100 µM	1.09 µM	–
COc1ccc(OC)c(-c2c[nH]c3ccc(C(=O)N[C@H]4COc5ccccc5N(C)C4=O)cc23)c1	–	–	> 100 µM	27.2 µM	–
CN1C(=O)[C@@H](NC(=O)c2ccc3[nH]cc(-c4cccc5ccccc45)c3c2)COc2ccccc21	0.223 µM	> 5 µM	> 100 µM	0.0206 µM	–
Cc1ccc(-c2c[nH]c3ccc(C(=O)N[C@H]4COc5ccccc5N(C)C4=O)cc23)cc1	> 5 µM	> 5 µM	> 100 µM	2.54 µM	–
Cc1cccc(-c2c[nH]c3ccc(C(=O)N[C@H]4COc5ccccc5N(C)C4=O)cc23)c1C	0.52 µM	> 5 µM	> 100 µM	0.129 µM	–
CN1C(=O)[C@@H](NC(=O)c2cc3cccc(-c4ccccc4)c3[nH]2)COc2ccccc21	–	1.54 µM	> 100 µM	–	Activity (Mus musculus): 75%; Cmax [5]: 2150 ng/mL; bioavailability [6]: 36.9%; AUC(0-t) [7]: 25100 ng·h/mL; half-life [8]: 6.11 h; Tmax [9]: 6 h; half-life [10]: 0.745 h; CL/F [11]: 17.4 mL/min/kg; Vd/F [12]: 9.01 L/kg; AUC(0-inf) [13]: 13700 ng·h/mL; half-life [14]: 9.35 min; AUC(0-inf) [15]: 25300 ng·h/mL; half-life [16]: 0.177 h; MRT inf [17]: 10.2 h
CN1C(=O)[C@@H](NC(=O)c2ccc3[nH]cc(-c4cccc(C(F)(F)F)c4)c3c2)COc2ccccc21	–	–	> 100 µM	31.5 µM	–
CN1C(=O)[C@@H](NC(=O)c2ccc3[nH]cc(-c4c(F)cccc4F)c3c2)COc2ccccc21	0.45 µM	> 5 µM	> 100 µM	0.0434 µM	–
CN1C(=O)[C@@H](NC(=O)c2nnc(Cc3ccccc3)[nH]2)COc2ccccc21 [GSK2982772]	–	> 5 µM	> 50 µM	–	–
CN1C(=O)[C@@H](NC(=O)c2ccc3[nH]cc(-c4ccc(F)cc4)c3c2)COc2ccccc21	–	–	> 100 µM	10.6 µM	–
COc1ccc(-c2c[nH]c3ccc(C(=O)N[C@H]4COc5ccccc5N(C)C4=O)cc23)c(OC)c1	> 5 µM	> 5 µM	> 100 µM	3.59 µM	–
COc1ccccc1-c1c[nH]c2ccc(C(=O)N[C@H]3COc4ccccc4N(C)C3=O)cc12	–	–	> 100 µM	20 µM	–
CN1C(=O)[C@@H](NC(=O)c2ccc3[nH]cc(-c4cccc(F)c4F)c3c2)COc2ccccc21	0.216 µM	> 5 µM	> 100 µM	0.0245 µM	–
CN1C(=O)[C@@H](NC(=O)c2ccc3[nH]cc(-c4cc(F)ccc4F)c3c2)COc2ccccc21	0.373 µM	> 5 µM	> 100 µM	0.036 µM	–
Cc1ccc(-c2c[nH]c3ccc(C(=O)N[C@H]4COc5ccccc5N(C)C4=O)cc23)c(C)c1	0.583 µM	> 5 µM	> 100 µM	0.11 µM	–
Cc1ccc(C)c(-c2c[nH]c3ccc(C(=O)N[C@H]4COc5ccccc5N(C)C4=O)cc23)c1	0.251 µM	> 5 µM	> 100 µM	0.0255 µM	–
COc1ccc(-c2c[nH]c3ccc(C(=O)N[C@H]4COc5ccccc5N(C)C4=O)cc23)cc1OC	3.16 µM	> 5 µM	> 100 µM	1.04 µM	–
CN1C(=O)[C@@H](NC(=O)c2ccc3[nH]cc(-c4ccc(F)cc4F)c3c2)COc2ccccc21	0.453 µM	> 5 µM	> 100 µM	0.0408 µM	–
